Test results reported in patent publication US9969698B2, “Quinoxalinyl-piperazinamide methods of use” (REXAHN PHARMACEUTICALS, INC., priority 2015, dated 2018).
Where two headings read alike, the source gives them in different places.

Experiments:
[1] = target: T1, Y593 phospho-p68 (Homo sapiens, UniProt P17844); assay: Filter binding assay with 3H-labeled RX-5902; settings: estimated by 50% of p68 bound to RX-5902
T1 construct: purchased Origene (Rockville, Md.)
Description: (§1) Recombinant β-catenin was used without further treatment whereas recombinant p68 protein was either used as p68 or phosphorylated by c-Abl for filter binding assay. Recombinant c-Abl was obtained from Abeam (Cambridge, Mass.).
(§2) Filter binding studies have been previously described elsewhere (Coombs et al., Proc. Natl. Acad. Sci. USA, 75:5291-5295 (1978). Briefly, recombinant p68 RNA helicase with/without tyrosine phosphorylation was added to the ^3H-labeled RX-5902 (10 Ci/mmol) with PBS. ^3H-labeled RX-5902 was synthesized from Quotient Bioresearch (Cardiff, UK). After incubation at room temperature for 30 minutes, the binding mixtures were loaded onto a nitrocellulose membrane. The membrane was washed five times with PBS, and then dried by vacuum. The amounts of RX-5902 bound to p68 with/without phosphorylation of p68 were determined by ^3H scintillation counting. The same procedure was done with ^3H-labeled RX-5902 alone without addition of p68 RNA helicase and sample p68 RNA helicase alone without addition of the ^3H-labeled RX-5902 as background ^3H scintillation counting. The binding percentages of p68 to the compound were calculated and plotted against concentrations. The dissociation constant (Kd) was estimated by the concentration at 50% of p68 bound to RX-5902 and calculated by linear regression analysis.

[2] = target: T2, unphosphorylated p68 (Homo sapiens, UniProt P17844); assay: Filter binding assay with 3H-labeled RX-5902; settings: filter binding studies
T2 construct: purchased Origene (Rockville, Md.)
T2 sequence (P17844 whole entry): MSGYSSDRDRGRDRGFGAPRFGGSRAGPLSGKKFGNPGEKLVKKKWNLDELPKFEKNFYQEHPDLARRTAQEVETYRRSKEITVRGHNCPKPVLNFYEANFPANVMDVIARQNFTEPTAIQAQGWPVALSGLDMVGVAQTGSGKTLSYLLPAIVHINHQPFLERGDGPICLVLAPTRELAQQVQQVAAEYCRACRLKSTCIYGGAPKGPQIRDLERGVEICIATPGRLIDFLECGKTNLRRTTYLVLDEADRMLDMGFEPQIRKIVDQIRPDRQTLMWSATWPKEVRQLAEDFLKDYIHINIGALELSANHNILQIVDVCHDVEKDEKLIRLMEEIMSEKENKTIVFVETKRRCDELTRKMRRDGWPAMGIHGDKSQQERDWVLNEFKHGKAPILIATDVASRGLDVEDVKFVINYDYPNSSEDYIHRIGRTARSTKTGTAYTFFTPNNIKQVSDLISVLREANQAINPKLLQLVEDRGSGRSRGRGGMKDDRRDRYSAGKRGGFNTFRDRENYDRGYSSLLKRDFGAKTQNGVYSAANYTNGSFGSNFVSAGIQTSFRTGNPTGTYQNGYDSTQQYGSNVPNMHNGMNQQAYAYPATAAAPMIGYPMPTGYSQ
Description: as §1, §2

[3] = target: CYP3A5 (Homo sapiens, UniProt P20815); assay: Loss of RX-5902 after incubation with expressed CYP450 isozyme; type: in vitro ADME; settings: 30-minute incubation with expressed CYP3A5
Sequence of CYP3A5 (P20815 whole entry): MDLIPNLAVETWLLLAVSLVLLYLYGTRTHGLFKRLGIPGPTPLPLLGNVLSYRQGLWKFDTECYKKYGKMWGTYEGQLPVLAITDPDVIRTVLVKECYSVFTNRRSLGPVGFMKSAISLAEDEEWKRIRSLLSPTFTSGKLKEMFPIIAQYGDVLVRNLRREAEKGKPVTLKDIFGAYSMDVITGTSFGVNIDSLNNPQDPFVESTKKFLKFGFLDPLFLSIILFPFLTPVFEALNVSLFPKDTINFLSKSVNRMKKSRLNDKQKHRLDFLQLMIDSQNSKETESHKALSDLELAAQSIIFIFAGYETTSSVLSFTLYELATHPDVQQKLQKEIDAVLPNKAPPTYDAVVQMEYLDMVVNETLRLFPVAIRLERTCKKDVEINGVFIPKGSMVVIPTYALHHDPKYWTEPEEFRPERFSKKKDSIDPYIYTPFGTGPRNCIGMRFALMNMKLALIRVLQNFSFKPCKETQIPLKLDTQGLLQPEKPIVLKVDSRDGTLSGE
Description: Two in vitro studies were performed to examine the involvement of specific cytochrome P450 (CYP450) isozymes in the in vitro metabolism of RX-5902. In the first study, the loss of RX-5902 was measured after incubation with expressed CYP450 isozymes (1A2, 2A6, 2B6, 2C8, 2C9, 2C19, 2D6, 3A4 and 3A5). […] In the second study, RX-5902 was incubated with pooled human liver microsomes in the presence of CYP450 isozyme-selective chemical inhibitors. The inhibitors tested were selective for 1A2, 2A6, 2B6, 2C8, 2C9, 2C19, 2D6, and 3A4/5.

[4] = system: human renal tumor xenografts (Caki-1); type: in vivo; settings: oral; for TGI: 5 days on/2 days off, Day 21
From the text: The efficacy of RX-5902 in human cancer xenograft mouse models is examined. Female nude mice (nu/nu, Harlan or CRL: NU(NCr)-Foxn1^nu, Charles River), 9-10 weeks old, with a body weight (BW) range of 15-30 g on day 1 of the study, are fed ad libitum water (reverse osmosis, 1 ppm C1), and NIH 31 Modified and Irradiated Lab Diet® consisting of 18.0% crude protein, 5.0% crude fat, and 5.0% crude fiber. The mice are housed on irradiated Enrich-o'Cobs™ Laboratory Animal Bedding in static microisolators on a 12-hour light cycle at 20-22° C. (68-72° F.) and 40-60% humidity. The study complies with the recommendations of the Guide for, Care and Use of Laboratory Animals with respect to restraint, husbandry, surgical procedures, feed and fluid regulation, and veterinary care.
Various human tumor cell lines (e.g., HCT116, HT29, H460, H69, Caki-1, CaSki, MiaPaca2, BxPC3 and Colo 205 cells [ATCC, Manassas, Va., USA]) are cultured according to ATCC's instruction. The tumor cells are cultured in tissue culture flasks in a humidified incubator at 37° C., in an atmosphere of 5% CO2 and 95% air.
The cells are harvested during exponential growth and re-suspended with phosphate buffered saline. Each test animal receives a subcutaneous (s.c.) injection of 5×10^6 tumor cells into the right flank and tumor growth is monitored as the average tumor size approaches the target range of 80-300 mm^3. When tumors reach the target size mice are randomized into several groups (n=10-20) and treatment with various regimens of RX-5902 or a positive (e.g., gemcitabine) or negative control (e.g.; vehicle, saline) is initiated. Tumors and body weights are measured regularly until the study is terminated.
Tumors are measured in two dimensions using calipers, and volume is calculated using the formula:
[formula] where w=width and 1=length, in mm, of the tumor. Tumor weight may be estimated with the assumption that 1 mg is equivalent to 1 mm^3 of tumor volume.
Treatment begins on Day 1 in eight groups of mice (n=10-20/group) with established subcutaneous tumors of a particular cell line. Each group is treated according to the study design. All doses are adjusted per body weight. Animals in each group are divided for efficacy and sampling purposes. There are also groups designated to vehicle control and no treatment for sampling purposes.
[…] […] Percent tumor growth inhibition (% TGI) is defined as the difference between the MTV of the designated control group (vehicle administration) and the MTV of the drug-treated group, expressed as a percentage of the MTV of the control group: % TGI=[1−(MTVdrug treated/MTVcontrol)]×100 The data set for TGI analysis includes all animals in a group, except those that die due to treatment-related (TR) or non-treatment-related (NTR) causes. An agent that produces at least 60% TGI in this assay is considered to be potentially therapeutically active.
Animals are monitored individually for tumor growth until Day 71. […] The time to endpoint (TTE) for each mouse is calculated with the following equation:
[formula] where b is the intercept and m is the slope of the line obtained by linear regression of a log-transformed tumor growth data set. […] In instances in which the log-transformed calculated TTE precedes the day prior to reaching endpoint or exceeds the day of reaching tumor volume endpoint, a linear interpolation is performed to approximate TTE. Any animal determined to have died from treatment-related (TR) causes is assigned a TTE value equal to the day of death. […]

T1 sequence (P17844 whole entry): as the sequence (P17844 whole entry) above

## COc1cc(OC)cc(N2CCN(C(=O)Nc3nc4cc(F)ccc4nc3OC)CC2)c1 [RX-5902, 4-(3,5-dimethoxyphenyl)-N-(7-fluoro-3-methoxyquinoxalin-2-yl)piperazine-1-carboxamide]
[1]
  Kd: ~19 nM
[2]
  interaction with unphosphorylated p68: did not interact
[3]
  loss of RX-5902: 54%
[4]; 50 mg/kg daily
  TGI: 80%
[4]; 70 mg/kg daily
  complete tumor regressions: 1/10
  partial tumor regressions: 6/10
  TGI: 96%
[4]; 50 and 70 mg/kg daily, both doses (P<0.0001)
  overall survival of the animals: extended the overall survival
